Values of other authors in US9326991B2, “Nucleotide prodrug compounds and use” (LIGAND PHARMACEUTICALS INC., priority 2012, dated 2016).

Settings: human subjects

**Q.** With `NC(=O)c1ncn([C@@H]2O[C@H](CO)[C@@H](O)[C@H]2O)n1` [Ribavirin, 1-((2R,3R,4S,5R)-3,4-dihydroxy-5-(hydroxymethyl)oxolan-2-yl)-1H-1,2,4-triazole-3-carboxamide] as the molecule, how does the half-life read?
**A.** ~12 days
